Results on two molecules are retold here after patent US8597904B2, “Pharmaceutical compositions for the treatment of conditions responsive to proteasome inhibition” (priority 2007, dated 2013).

The test system of test [1] is SK-N-SH cells. In words: microscopy of treated SK-N-SH cells for membrane blebbing. It counts as cell-based, human.
Another test deals with Akt/PKB. In words: Western blot of Akt/PKB and phosphorylation at Ser473 in SK-N-SH cells. In kind it is cell-based, human. Here is the method: Since Akt/PKB is a well-characterized anti-apoptotic protein, total Akt/PKB levels were measured in treated cells in addition to determining the protein's phosphorylation status at residue Ser473, which is indicative of its activity. SK-N-SH cells were treated with GlbA in the presence or absence of 3-MA, and cell lysates were analyzed for Akt/PKB.

In test [2] the test system is SK-N-SH cells. The note with it: values from previous studies with SylA (Coleman et al. 2006); cited from earlier work.
A further test deals with Rat-1 fibroblasts cells. In words: sulphorhodamine B (SRB) cell viability / proliferation assay. In kind it is cell-based. The protocol:
To then test the effects of syringolin A on proliferation, cells at 0.25-0.5×10^5 cells per ml were seeded in 96-well microtiter plates containing 100 μl of culture medium per well. After 24 hours, syringolin A was added to wells to a final concentration of 0.5 μm to 100 μm. Syringolin was not added to parallel samples of control cells. Cells were incubated for 48 hours, photographed, and the viability of cells (calculated as a percentage of control cell counts) was determined using the sulphorhodamine B (SRB) assay as previously reported (Skehan, et al. 1990. J. Natl. Cancer Inst. 82:1107-1112, which is incorporated herein by reference in its entirety). In brief, cell culture medium was removed from the microtiter plate and adherent cells were fixed with 10% (w/v) trichloracetic acid (TCA) for 30 minutes at room temperature. Following four washes with tap water, 100 μl of SRB (Sigma Chemical Co., St. Louis, Mo.) (0.4 g/100 ml 1% [v/v] glacial acetic acid in water) was added and the plate was then incubated for 30 minutes at room temperature, and rinsed four times with 3% (v/v) glacial acetic acid. […] The absorption at a wavelength of 560 nm was read using an HTS 7000 Plus Bioassay Reader or a Victor 3, 1420 Multilabel Counter (PerkinElmer, Inc. Boston, Mass.). […]

The subject of test [3] is SKOV3 cells. The note with it: values from previous studies with SylA (Coleman et al. 2006); cited from earlier work.
For test [4], the system named is β-actin, procaspase-3 and protein kinase Akt/PKB. In words: Western blot of β-actin, procaspase-3 and Akt/PKB in syringolin A-treated cells. In kind it is cell-based, human. As to conditions: 20 μM, 48 hours.
Test [5] concerns SKOV3 cells. Description: sulphorhodamine B (SRB) cell viability / proliferation assay. It counts as cell-based, human. From the text:
The mammalian cell lines used to test the effects of syringolin A were human neuroblastoma (NB) cells with either wild type p53 (line SK-N-SH, provided by the American Type Culture Collection [ATCC], Manassas, Va.; Davidoff, et al. 1992. Oncogene 7:127-133; McKenzie, et al. 1999. Clin. Cancer Res. 5:4199-4207; Tweddle, et al. 2001. Am. J. Pathol. 158:2067-2077), mutant p53 (line LAN-1, cysteine to stop codon at residue 182, provided by Dr. Robert Seeger, University of California, Los Angeles, Calif.; Davidoff, et al. 1992. Oncogene 7:127-133; Tweddle, et al. 2001. Cancer Res. 61:8-13; Tweddle, et al. 2003. […] Cells were seeded 18-24 hours before GlbA or SylA treatment and analyzed after 24 and/or 48 hours. Cell numbers were determined using a haemacytometer in the presence of trypan blue (Fisher Scientific, Pittsburgh, Pa.).
To then test the effects of syringolin A on proliferation, cells at 0.25-0.5×10^5 cells per ml were seeded in 96-well microtiter plates containing 100 μl of culture medium per well. […] Cells were incubated for 48 hours, photographed, and the viability of cells (calculated as a percentage of control cell counts) was determined using the sulphorhodamine B (SRB) assay as previously reported (Skehan, et al. 1990. J. Natl. Cancer Inst. 82:1107-1112, which is incorporated herein by reference in its entirety). […]

In test [6] the test system is NB and ovarian cancer cells. As to conditions: Coleman et al. 2006, cited from earlier work.

For the molecule `CCCCCCC/C=C/C=C/C(=O)N[C@H](C(=O)N[C@H]1C[C@@H](O)CCNC(=O)/C=C/[C@H](C)NC1=O)[C@@H](C)O` [glidobactin A], the “membrane blebbing / apoptotic effects by microscopy” value in the test with SK-N-SH cells [1] is on record as “presence of membrane blebbing”. For the same molecule, in the test with Akt/PKB (GlbA treatment), the “Akt/PKB phosphorylation at Ser473” value is reported as “phosphorylated at Ser473” and the “total Akt/PKB levels” value is “slight decrease”. For the same molecule, the “Akt/PKB phosphorylation at Ser473 after pre-treatment with 3-MA” value in the test with Akt/PKB (GlbA with 3-MA pre-treatment) was “prevented”.

The term EC50 denotes the concentration needed to bring the measured effect to its halfway point. `CC(C)[C@H](NC(=O)N[C@H](C(=O)N[C@H]1/C=C/CCNC(=O)/C=C/[C@H](C(C)C)NC1=O)C(C)C)C(=O)O` [syringolin A]: the EC50 in the test with SK-N-SH cells [2] and with SKOV3 cells [3] was approximately 20 µM each time. The cell morphology result in the test on Rat-1 fibroblasts cells (Rat-1, 25 μM, no detachment or floating cells) is given as “affected the cell morphology”; in the test on SKOV3 cells [5] (SKOV3, 25 μM, no detachment or floating cells), “affected the cell morphology”; in test [6] (NB cells, 25 μM, 48 hours), “severe morphological changes”. Further, the cell proliferation rate result in the test on Rat-1 fibroblasts cells (Rat-1, dose-dependent) is listed as “reduced the cell proliferation rate”; in the test on SKOV3 cells [5] (SKOV3, dose-dependent), “reduced the cell proliferation rate”. Further, the “levels of β-actin, procaspase-3 and protein kinase Akt/PKB” value in test [4] is given as “decreased”. Also, in test [6] (read-out: IC-50 (concentration at which the cell proliferation rate is reduced to 50%)), the IC50 was approximately 25 µM.
